Where “and” joins values, the source holds several entries; their conditions need not be identical. Equal values may be shown once.
Tested on: 186277-243-T-J2-PDC spheroids with HUVEC/MSC, viability
Assay: Anticancer human tumor 186277-243-T-J2-PDC patient-derived colon adenocarcinoma cell line growth inhibition [CLK]
Conditions: for viability, T/C: stronger effect = lower value
In short: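 Multi-cell-type spheroids combined patient-derived tumor cells with HUVEC endothelial cells and human mesenchymal stem cells. Paired agents were dosed in half-log steps down from about clinical Cmax, or from 10 microM where Cmax was unknown.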
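Further: compound exposure lasted seven days before readout.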
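Wherever viability, T/C is given: 100% = DMSO vehicle control wells.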

SMILES: Cn1ncnc1[C@H]1c2n[nH]c(=O)c3cc(F)cc(c23)N[C@@H]1c1ccc(F)cc1
- viability, T/C (compound 0.000316 µM): 99.8% and 98.2%
- viability, T/C (compound 0.001 µM): 73.1% and 89.7%
- viability, T/C (compound 0.00316 µM): 109% and 110%
- viability, T/C (compound 0.01 µM): 100% and 103%
- viability, T/C (compound 0.0316 µM): 115% and 127%
- viability, T/C (compound 0.1 µM): 121% and 134%
- IC50 (curve of compound): > 100 nM

SMILES: NC(=O)C(=Cn1cnc(-c2cc(C(F)(F)F)cc(C(F)(F)F)c2)n1)c1cncnc1
- viability, T/C (compound 0.00949 µM): 88.2% and 88.1%
- viability, T/C (compound 0.03 µM): 84.5% and 87.8%
- viability, T/C (compound 0.0949 µM): 113% and 107%
- viability, T/C (compound 0.3 µM): 18.2% and 10.8%
- viability, T/C (compound 0.949 µM): 4.07% and 5.27%
- viability, T/C (compound 3 µM): 1.81% and 3.46%
- IC50 (curve of compound): 186 nM and 175 nM

SMILES: CC(Nc1ccc2c(c1)OCCn1cc(N3C(=O)OCC3C(F)F)nc1-2)C(N)=O (stereo unspecified) + CN1CCN(c2cc(C(=O)Nc3cc4cc(-c5cnn(C)c5)ccc4cn3)ccn2)CC1
- IC50 (curve of first compound, second compound 0.0316 µM): 828 nM
- IC50 (curve of first compound, second compound 0.1 µM): 158 nM
- IC50 (curve of first compound, second compound 0.316 µM): < 31.6 nM
- IC50 (curve of first compound, second compound 1 µM): < 31.6 nM
- IC50 (curve of first compound, second compound 3.16 µM): < 31.6 nM
- IC50 (curve of first compound, second compound 10 µM): < 31.6 nM
- viability, T/C (second compound 0.0316 µM, first compound 0.0316 µM): 87.7%
- viability, T/C (second compound 0.0316 µM, first compound 0.1 µM): 94.8%
- viability, T/C (second compound 0.0316 µM, first compound 0.316 µM): 59.2%
- viability, T/C (second compound 0.0316 µM, first compound 1 µM): 55.8%
- viability, T/C (second compound 0.0316 µM, first compound 3.16 µM): 46.4%
- viability, T/C (second compound 0.0316 µM, first compound 10 µM): 42.4%
- viability, T/C (second compound 0.1 µM, first compound 0.0316 µM): 71.8%
- viability, T/C (second compound 0.1 µM, first compound 0.1 µM): 54.4%
- viability, T/C (second compound 0.1 µM, first compound 0.316 µM): 42.3%
- viability, T/C (second compound 0.1 µM, first compound 1 µM): 30.4%
- viability, T/C (second compound 0.1 µM, first compound 3.16 µM): 19.4%
- viability, T/C (second compound 0.1 µM, first compound 10 µM): 13.4%
- viability, T/C (second compound 0.316 µM, first compound 0.0316 µM): 20.5%
- viability, T/C (second compound 0.316 µM, first compound 0.1 µM): 17.4%
- viability, T/C (second compound 0.316 µM, first compound 0.316 µM): 7.85%
- viability, T/C (second compound 0.316 µM, first compound 1 µM): 3.43%
- viability, T/C (second compound 0.316 µM, first compound 3.16 µM): 2.25%
- viability, T/C (second compound 0.316 µM, first compound 10 µM): 1.31%
- viability, T/C (second compound 1 µM, first compound 0.0316 µM): 0.25%
- viability, T/C (second compound 1 µM, first compound 0.1 µM): 0.73%
- viability, T/C (second compound 1 µM, first compound 0.316 µM): 0.91%
- viability, T/C (second compound 1 µM, first compound 1 µM): 0.46%
- viability, T/C (second compound 1 µM, first compound 3.16 µM): 0.47%
- viability, T/C (second compound 1 µM, first compound 10 µM): 1.48%
- viability, T/C (second compound 3.16 µM, first compound 0.0316 µM): 1.24%
- viability, T/C (second compound 3.16 µM, first compound 0.1 µM): 0.72%
- viability, T/C (second compound 3.16 µM, first compound 0.316 µM): 1.34%
- viability, T/C (second compound 3.16 µM, first compound 1 µM): 0.69%
- viability, T/C (second compound 3.16 µM, first compound 3.16 µM): 0.82%
- viability, T/C (second compound 3.16 µM, first compound 10 µM): 0.74%
- viability, T/C (second compound 10 µM, first compound 0.0316 µM): 0.96%
- viability, T/C (second compound 10 µM, first compound 0.1 µM): 1.39%
- viability, T/C (second compound 10 µM, first compound 0.316 µM): 0.74%
- viability, T/C (second compound 10 µM, first compound 1 µM): 0.87%
- viability, T/C (second compound 10 µM, first compound 3.16 µM): 0.87%
- viability, T/C (second compound 10 µM, first compound 10 µM): 0.69%

From PubChem BioAssay AID2060625 (Molecular Pharmacology Branch, DTP, NCI, 2025)
